Measurements as given in US4912116A, “Propiophenone derivatives for treatment of pollakiuria (frequency urination)” (Hokuriku Pharmaceutical Co., Ltd., priority 1986, dated 1990).
Where a name gives a salt, the structure may show the parent alone.

Tests used:
[1] = in vivo; conditions: mouse, oral, mortality for one week, Probit method
Protocol: Five to ten male ddY mice aged 4-5 weeks were used for each determination.
The test drug (5-8 dose levels) was orally administrated, and the LD50 value was calculated by Probit method from the mortality for one week after administration.

[2] = test system: cystometrogram (time to micturition); experiment: Effects on the cystometrogram (Dog); format: in vivo, Mongrel adult dogs; conditions: i.v., dogs, mean ± S.E., saline 6.0 ± 13.8
Protocol: (§1) statistical analysis: Each data of Experiment 1-6 represents the mean±S.E. statistical analysis of the data was performed using student's t-test.
Mongrel adult dogs weighing about 10 kg were anesthetized with thiopental (20 mg/kg, i.v.) and immobilized with gallamine (2 mg/kg, i.v.), and fixed on their back.
In the experiment, infusion of pentobarbital (3 mg/kg/hr, i.v.) and gallamine (3 mg/kg i.v.) were continuted, and artifical respiration was performed (20 times/min, 20 ml air/kg).
After midline incision of the abdomen, the ureters were ligated and polyethylene tubes were inserted into the kidney side and the urinary bladder side. Urine was led out of the body from the kidney side, and warm saline was infused using a continuous infusion pump from the urinary bladder side.
Then, a catheter was inserted into the bladder dome and connected to a pressure transducer. Intravesical pressure was recorded on a recorder.
The infusion rate of saline was changed (6-35 ml/min) so as to induce the time to micturition from the saline infusion (time to micturition) at about five minutes.
The drug was administered (through a cannula inserted into the right femoral vein) at the second minute before the last time to micturition, and the delayed time of micturition was evaluated.

[3] = test system: cystometrogram (time to micturition); experiment: Effects on the cystometrogram (Cat); format: in vivo, Mongrel adult cats; conditions: cats
Protocol: as §1
Mongrel adult cats weighing about 3 kg (in case of intraduodenal administration, fasted 24 hours) were anesthetized with urethane (500 mg/kg, i.p.) and alpha-chloralose (50 mg/kg, i.p.) and fixed on their back.
After midline incision of the abdomen, the ureters were ligated and polyethylene tubes were inserted into the kidney side and urinary bladder side, urine was led out of the body from the kidney side, and warm saline was infused using a continuous infusion pump from the urinary bladder side.
Then, a catheter was inserted into the bladder dome and connected to a pressure transducer Intravesical pressure was recorded on a recorder.
The infusion rate of saline was changed (0.7-6.6 ml/min) so as to induce the time to micturition from saline infusion at about five minutes.
Each of delayed time of micturition was evaluated. In case of intravenous administration, the drug was administered through a cannula inserted into the right femoral vein at 30 seconds before saline infusion.
In case of intraduodenal administration, the drug was administrated through a tube inserted into the duodenum by way of mouth at the time of saline infusion, and the time to micturition was measured at 15 min. intervals until 90 min.

[4] = test system: micturition reflex (rhythmic bladder contractions); experiment: Inhibition of micturition reflex (rhythmic bladder contractions) in anesthetized rats; format: in vivo, male wister rats; conditions: for Disappearance time (of bladder contractions): i.v., 3 rats, mean ± S.E.; for ED (3 min disappearance of contractions): iv, read-out: ED3 (dose at which rhythmic bladder contractions disappeared in three (3) minutes)
Protocol: as §1
According to the method described by Morikawa et al. (Folia phamacol. japon.: 88,355 (1986), male wister rats weighing about 300 g (in case of intraduodenal administration, fasted 18-20 hours) were anesthetized with urethane (500 mg/kg, i.p.) and alpha-chloralose (50 mg/kg, i.p.), and fixed on their back.
Then, through a midline incision of the abdomen, the urinary bladder was exposed, provided with a small incision, and a balloon (capacity about 1 ml) was inserted into the bladder dome.
The balloon was connected to a pressure transducer and variations of inside pressure were recorded on a recorder.
Micturition reflex was elicited by elevating balloon pressure 10-20 cm H2 O.
In case of intravenous administration, the drug was administrated through a cannula inserted into the left jugular vein and, in case of intraduodenum administration, the drug was administrated through a cannula into the duodenum from outside the stomach.
In case of intravenous administration, the drug was evaluated by the dissappearance time of bladder contractions caused by micturition reflex.
In case of intraduodenal administration, the sum total of amplitude of bladder contractions caused by the micturition reflex was calculated during each five minutes at 5 min. before and 15, 30, 45, and 60 min. after the administration.
Then, the maximum inhibition rate was determined from one of the above judgment times compared with that of before the administration, and the dose which inhibited 50 percent of the sum total of amplitude of bladder contractions during five minutes (ED 50 value), was calculated from the graph.

Compound	LD50 at 168 h [1] [mg/kg]	Disappearance time (of bladder contractions) ([4]; 1 mg/kg) [min]	ED (3 min disappearance of contractions) ([4]; Rattus norvegicus) [mg/kg]	Disappearance time (of bladder contractions) ([4]; 2 mg/kg) [min]	Disappearance time (of bladder contractions) ([4]; 4 mg/kg) [min]	Disappearance time (of bladder contractions) ([4]; 8 mg/kg) [min]	also measured
Cc1c(-c2ccccc2)oc2c(C(=O)OCCN3CCCCC3)cccc2c1=O [flavoxate-HCl, reference compound]	1330	1.1 ± 1.1	1.4				Delayed time of micturition ([2]; 1 mg/kg): 0.6 ± 35.4 s; Delayed time of micturition ([2]; 3 mg/kg, * p < 0.05 vs last time to micturition): 30.6 ± 44.4 s; Delayed time to micturition ([3]; 1 mg/kg, i.v., mean ± S.E., saline 6.6 ± 10.2): 12.0 ± 10.8 s; Delayed time to micturition ([3]; 4 mg/kg, i.v., mean ± S.E., saline 6.6 ± 10.2): 39.0 ± 43.8 s; Delayed time to micturition ([3]; 8 mg/kg, i.v., mean ± S.E., saline 6.6 ± 10.2): -16.8 ± 36.6 s; Delayed time to micturition ([3]; 30.0 mg/kg, i.d., after 30 min., water 22.2 ± 16.2): -45.6 ± 37.8 s; delayed effect on the cystometrogram (in words) ([3]; intravenous and intraduodenal): not recognized to produce delayed effects; Disappearance time (of bladder contractions) ([4]; 3 mg/kg): 7.5 ± 2.7 min; ED50 ([4]; Rattus norvegicus, intraduodenal administration, read-out: ED50 (dose which inhibited 50 percent of the sum total of amplitude of bladder contractions during five minutes)): 270 mg/kg
CC(CN1CCCC1)C(=O)c1ccc(C2CCCCC2)cc1 (stereo not shown) [Compound 2]	587	1.0 ± 1.0	2.2	2.5 ± 1.3	6.3 ± 0.8		
CC(CN1CCCCCC1)C(=O)c1ccc(F)cc1 (stereo not shown) [Compound 9]		0.5 ± 0.1	2.7	1.2 ± 0.8	5.5 ± 2.7		
CCc1ccc(C(=O)C(C)CN2CCCCC2)cc1 (stereo not shown) [Compound 3]		0.4 ± 0.4	1.4	5.3 ± 2.6	12.0 ± 1.2		
CN1CCCC1CCC(=O)c1ccc(Cl)cc1 (stereo not shown) [Compound 6]			8	1.1 ± 0.3	1.9 ± 0.3	3.0 ± 0.3	
Cc1ccc(C(=O)C(C)CN2CCCCC2)cc1 (stereo not shown) [Compound 4]	450	1.0 ± 0.7	2.4	2.3 ± 0.5	4.9 ± 1.9		
COc1ccc(C(=O)C(C)CN2CCCC2)c(C)c1C (stereo not shown) [Compound 5]		6.3 ± 1.4	0.25				Disappearance time (of bladder contractions) ([4]; 0.25 mg/kg): 3.0 ± 0.4 min
CC(CN1CCOCC1)C(=O)c1cccc(F)c1 (stereo not shown) [Compound 7]			2.8	1.8 ± 1.0		6.8 ± 2.1	
CC(CN1CCCC1)C(=O)c1ccc(CF)cc1 (stereo not shown) [Compound 8]				1.5 ± 4.79	2.4 ± 2.0	5.2 ± 2.5	
